Some test systems named below: 786-0 renal; BT-549 breast; CCRF-CEM leukemia; COLO 205 colon; DU-145 prostate; HCT-116 colon; HOP-62 NSCLC; HT29 colon; M14 melanoma; MALME-3M melanoma; NCI-H522 lung; OVCAR-5 ovarian; SF-268 CNS; SK-MEL-2 melanoma; SN12C renal; U251 CNS; UACC-257 melanoma; SR leukemia; A498 renal; RPMI-8226 leukemia.
Experiment in all cases: NCI anticancer screen, dose series, 48 h

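Interpolation was linear, between the two tested concentrations surrounding the appropriate level; five concentrations were tested over 48 hours in 96-well plates. TGI marks complete inhibition of growth.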 Where a SMILES comes first, the peptide text is derived from it. The star is where a group is joined. Boc = CC(C)(C)OC(=O)*; OBn = c1ccc(CO*)cc1 Some results are limits rather than exact numbers.

For `O=C(Nc1ccc(N2C(=O)CSC2c2cccs2)cc1)c1ccc(N2C(=O)CSC2c2cccs2)cc1` (stereo not drawn), the TGI in the assay with 786-0 renal, in the assay with BT-549 breast, with CCRF-CEM leukemia, with COLO 205 colon, in the assay on DU-145 prostate and with HCT-116 colon was over 100 µM each time. Further, the TGI in the assay with HOP-62 NSCLC, in the assay with HT29 colon, in the assay with M14 melanoma, in the assay on MALME-3M melanoma, in the assay with NCI-H522 lung and in the assay on OVCAR-5 ovarian was over 100 µM throughout. Besides, the TGI with SF-268 CNS, in the assay on SK-MEL-2 melanoma, in the assay on SN12C renal, in the assay on U251 CNS and in the assay on UACC-257 melanoma was over 100 µM throughout.
For the compound `COC(=O)C1=C(OC(=O)/C(=C/c2c(F)cccc2F)c2ccccc2)C(C(=O)OC)[C@@]2(O)[C@@H](C(=O)OC)[C@H](C)C[C@@H]1[C@@H]2C(=O)OC` (stereo partly drawn), the TGI in the assay with 786-0 renal, in the assay on BT-549 breast, in the assay on CCRF-CEM leukemia, in the assay on COLO 205 colon, in the assay with DU-145 prostate and in the assay on HCT-116 colon was over 100 µM throughout. The TGI with HOP-62 NSCLC, in the assay on HT29 colon, with M14 melanoma, in the assay with MALME-3M melanoma, with NCI-H522 lung and with OVCAR-5 ovarian was over 100 µM in each case. Moreover, the TGI in the assay on SF-268 CNS, in the assay with SK-MEL-2 melanoma, with SN12C renal, with U251 CNS and in the assay on UACC-257 melanoma was over 100 µM each time.
On to `COC(=O)c1cn(CCCCO)nn1`, for which the TGI with 786-0 renal, with BT-549 breast, in the assay with CCRF-CEM leukemia, in the assay on COLO 205 colon, in the assay on DU-145 prostate and with HCT-116 colon was over 100 µM in each case. In addition, the TGI in the assay with HOP-62 NSCLC, in the assay with HT29 colon, in the assay with MALME-3M melanoma, with SF-268 CNS, with SK-MEL-2 melanoma and in the assay with SN12C renal was over 100 µM each time. Also, the TGI with SR leukemia, with U251 CNS and with UACC-257 melanoma was over 100 µM each time.
In the case of `ClCCCC1COc2ccccc2O1` (stereo not drawn), the TGI in the assay with 786-0 renal, with BT-549 breast, with CCRF-CEM leukemia, in the assay on COLO 205 colon, with DU-145 prostate and in the assay on HCT-116 colon was over 100 µM throughout. Besides, the TGI in the assay with HOP-62 NSCLC, in the assay with HT29 colon, in the assay with M14 melanoma, with MALME-3M melanoma, in the assay with NCI-H522 lung and in the assay with OVCAR-5 ovarian was over 100 µM throughout. For the same compound, the TGI in the assay with SF-268 CNS, in the assay on SN12C renal, in the assay on SR leukemia, in the assay on U251 CNS and in the assay with UACC-257 melanoma was over 100 µM in each case.
For the compound `O=C1C=C(NCCc2cc(Cl)c(O)c(Cl)c2)C(=O)c2[nH]cnc21`, the TGI in the assay with 786-0 renal is over 100 µM; in the assay on A498 renal it was over 100 µM; with BT-549 breast, over 100 µM; in the assay on COLO 205 colon, 52.7 µM; in the assay with HCT-116 colon it was over 100 µM; with HOP-62 NSCLC, over 100 µM. In addition, the TGI with HT29 colon is over 100 µM; in the assay on M14 melanoma it was 26.7 µM; with MALME-3M melanoma, 15.9 µM; in the assay on NCI-H522 lung, 31.4 µM; with OVCAR-5 ovarian it was over 100 µM; in the assay with RPMI-8226 leukemia, over 100 µM. The TGI with SK-MEL-2 melanoma is 57.6 µM; in the assay on SN12C renal, over 100 µM; in the assay on SR leukemia it was over 100 µM; with U251 CNS it was over 100 µM; with UACC-257 melanoma, 60 µM.
As for `N#Cc1nc(NC(=O)c2ccccc2)sc1N`, the TGI in the assay with 786-0 renal, in the assay on A498 renal, in the assay on CCRF-CEM leukemia, in the assay on COLO 205 colon, in the assay with DU-145 prostate and in the assay with HCT-116 colon was over 10 µM in each case. The TGI with HOP-62 NSCLC, with HT29 colon, in the assay with M14 melanoma, in the assay with MALME-3M melanoma, in the assay with NCI-H522 lung and with OVCAR-5 ovarian was over 10 µM each time. The TGI in the assay with RPMI-8226 leukemia, in the assay on SF-268 CNS, in the assay on SK-MEL-2 melanoma, with SN12C renal, in the assay on SR leukemia and with U251 CNS was over 10 µM throughout. The compound also showed a TGI in the assay on UACC-257 melanoma of over 10 µM.
With `Cc1cn(CCCCOC(=O)NC(CCCNC(N)=O)C(=O)O)c(=O)[nH]c1=O` (stereo not drawn), the TGI in the assay with 786-0 renal, in the assay with BT-549 breast, with CCRF-CEM leukemia, in the assay on COLO 205 colon, with DU-145 prostate and with HCT-116 colon was over 100 µM in each case. Besides, the TGI in the assay with HOP-62 NSCLC, in the assay on HT29 colon, in the assay on M14 melanoma, in the assay on OVCAR-5 ovarian, in the assay with RPMI-8226 leukemia and in the assay with SF-268 CNS was over 100 µM each time. The TGI in the assay on SK-MEL-2 melanoma, in the assay on SN12C renal, in the assay on SR leukemia, with U251 CNS and with UACC-257 melanoma was over 100 µM in each case.
For the compound `CC(C)C(NC(=O)CNC(=O)C1CCCN1C(=O)C(NC(=O)OC(C)(C)C)C(C)C)C(=O)NCC(=O)OCc1ccccc1` (stereo not drawn) (Boc-VPGVG-OBn; configuration not given here), the TGI with 786-0 renal, in the assay with A498 renal, with CCRF-CEM leukemia, with COLO 205 colon, in the assay with DU-145 prostate and in the assay with HCT-116 colon was over 100 µM throughout. Also, the TGI in the assay on HOP-62 NSCLC, in the assay on HT29 colon, in the assay on M14 melanoma, in the assay on MALME-3M melanoma, in the assay with NCI-H522 lung and with OVCAR-5 ovarian was over 100 µM in each case. The TGI in the assay on RPMI-8226 leukemia, in the assay with SF-268 CNS, in the assay with SK-MEL-2 melanoma, in the assay with SN12C renal, with SR leukemia and in the assay on U251 CNS was over 100 µM in each case. The TGI in the assay on UACC-257 melanoma was over 100 µM.
Regarding `COC(=O)C(CCSc1ccccc1)C(=O)OC`, the TGI in the assay on 786-0 renal, with A498 renal, in the assay with BT-549 breast, in the assay on CCRF-CEM leukemia, in the assay on COLO 205 colon and with HCT-116 colon was over 100 µM throughout. The TGI in the assay on HOP-62 NSCLC, in the assay on HT29 colon, in the assay on M14 melanoma, with MALME-3M melanoma, with NCI-H522 lung and in the assay with OVCAR-5 ovarian was over 100 µM in each case. Also, the TGI with RPMI-8226 leukemia, in the assay on SK-MEL-2 melanoma, in the assay on SN12C renal, in the assay with SR leukemia, with U251 CNS and with UACC-257 melanoma was over 100 µM throughout.
In the case of `CC(=O)[C@]1(C)[C@H](C)O[C@](C)(CO)[C@H]1O[Si](C)(C)c1ccccc1`, the TGI in the assay with 786-0 renal, with A498 renal, with CCRF-CEM leukemia, in the assay on COLO 205 colon, with DU-145 prostate and in the assay with HCT-116 colon was over 100 µM in each case. Also, the TGI was over 100 µM with HOP-62 NSCLC; over 100 µM in the assay on HT29 colon; over 100 µM in the assay with M14 melanoma; over 100 µM with MALME-3M melanoma; 52.3 µM in the assay on NCI-H522 lung; over 100 µM in the assay on OVCAR-5 ovarian. Also, the TGI in the assay with RPMI-8226 leukemia, in the assay with SF-268 CNS, in the assay on SK-MEL-2 melanoma, in the assay with SN12C renal, with SR leukemia and in the assay on U251 CNS was over 100 µM in each case. For the same compound, the TGI with UACC-257 melanoma is over 100 µM.
Consider `CC(=O)NC(CCCOC(C)=O)C(=O)NC(CCCOC(C)=O)C(=O)NC(CCCOC(C)=O)C(=O)NC(Cc1ccc([N+](=O)[O-])cc1)C(=O)NCC(=O)OCc1ccccc1` (stereo not drawn), for which the TGI in the assay on 786-0 renal, in the assay with A498 renal, with CCRF-CEM leukemia, in the assay on COLO 205 colon, in the assay on DU-145 prostate and in the assay on HCT-116 colon was over 100 µM throughout. Also, the TGI in the assay with HOP-62 NSCLC, with HT29 colon, with M14 melanoma, in the assay with MALME-3M melanoma, in the assay on NCI-H522 lung and with OVCAR-5 ovarian was over 100 µM each time. For the same compound, the TGI with RPMI-8226 leukemia, with SF-268 CNS, in the assay with SK-MEL-2 melanoma, in the assay on SN12C renal, in the assay on SR leukemia and in the assay with U251 CNS was over 100 µM each time. This compound gave a TGI with UACC-257 melanoma of over 100 µM.
Consider `COc1cc(/C=C2/C(=O)N=C(NC(C)=O)N2C)ccc1OC(C)=O`, for which the TGI in the assay on 786-0 renal, in the assay with BT-549 breast, in the assay on COLO 205 colon, with DU-145 prostate, with HCT-116 colon and in the assay with HOP-62 NSCLC was over 100 µM in each case. Further, the TGI in the assay on HT29 colon, with M14 melanoma, with OVCAR-5 ovarian, in the assay with SK-MEL-2 melanoma, in the assay on SN12C renal and in the assay with U251 CNS was over 100 µM in each case. The TGI in the assay with UACC-257 melanoma was over 100 µM.
For `Cc1ccc(Nc2cc(=O)[nH]c(=O)[nH]2)cc1CS`, the TGI with 786-0 renal, in the assay with A498 renal, with BT-549 breast, in the assay with CCRF-CEM leukemia, in the assay on COLO 205 colon and in the assay on HCT-116 colon was over 100 µM each time. The TGI with HOP-62 NSCLC, in the assay on HT29 colon, with M14 melanoma, in the assay on MALME-3M melanoma, in the assay on NCI-H522 lung and with OVCAR-5 ovarian was over 100 µM in each case. Besides, the TGI in the assay with RPMI-8226 leukemia, with SF-268 CNS, in the assay with SK-MEL-2 melanoma, in the assay with SN12C renal, with SR leukemia and with U251 CNS was over 100 µM each time. In the assay on UACC-257 melanoma, this compound returned a TGI of over 100 µM.
For the compound `CN(C)C=Nc1c(Br)cc(Br)c2nonc12`, the TGI with 786-0 renal, with A498 renal, with CCRF-CEM leukemia, in the assay on COLO 205 colon, in the assay with DU-145 prostate and in the assay on HCT-116 colon was over 100 µM throughout. Moreover, the TGI in the assay on HOP-62 NSCLC, in the assay with HT29 colon, in the assay on M14 melanoma, in the assay with MALME-3M melanoma, in the assay with NCI-H522 lung and in the assay on OVCAR-5 ovarian was over 100 µM each time. The TGI in the assay on RPMI-8226 leukemia, with SF-268 CNS, in the assay with SK-MEL-2 melanoma, in the assay on SN12C renal, with SR leukemia and in the assay on UACC-257 melanoma was over 100 µM throughout.
As for `CCOC(=O)NC(C(C(=O)OCC)C(=O)OCC)(C(F)(F)F)C(F)(F)F`, the TGI in the assay with 786-0 renal, in the assay with A498 renal, in the assay on CCRF-CEM leukemia, in the assay on COLO 205 colon, with DU-145 prostate and in the assay with HCT-116 colon was over 100 µM throughout. In addition, the TGI with HOP-62 NSCLC, in the assay with HT29 colon, in the assay with M14 melanoma, with MALME-3M melanoma, in the assay with NCI-H522 lung and with OVCAR-5 ovarian was over 100 µM throughout. For the same compound, the TGI with RPMI-8226 leukemia, in the assay with SF-268 CNS, in the assay on SK-MEL-2 melanoma, in the assay on SN12C renal, in the assay on SR leukemia and with U251 CNS was over 100 µM each time. Moreover, in the assay on UACC-257 melanoma, the TGI is over 100 µM.

(Values after PubChem BioAssay (NCI).)
